{"source": "patent US7973024B2", "about": "“24-sulfoximine vitamin D3 compounds” (Cyctochroma Inc., priority 2002, dated 2011)", "key": {"[1]": {"test_system": "SCC-25 cells", "test": "[3H]-thymidine proliferation assay with SCC-25 cells", "type": "cell-based", "settings": "together with calcitriol, three days, [3H]-thymidine 6 h", "method": "1. Preparation of Cell Suspension • When SCC-25 cells were 70-80% confluent, aspirated media. Washed the cells with 1×PBS. Trypsinized with trypsin-EDTA from the plate, collected cells from the tissue culture flask, centrifuged (500×g, 5 min) and resuspended in media.\n2. Cell Plating. • Counted the cells and adjusted the cell density to 10,000/ml. Added 200 μl per well in a 96 well plate. Incubated plate for 24 h at 37° C. in a humidified atmosphere plus 5% CO2. Aspirated used media and replaced with 150 μl per well with media.\n3. Compound Addition. • Added 25 μl of 1α,25(OH)2D3 (final concentration 10^−6M, 10^−7 M, 10^−8 M, M, 10^−10 M, 10^−11 M) into each designated well. Added 25 μl of substrate (final concentration 10^−7 M, 5×10^−8 M, 10^−8 M or 10^−9 M) into each designated well. Incubated plates for 3 days at 37° C. in a humidified atmosphere plus 5% CO2.\n4. ^3H-Thymidine Incorporation. • Added ^3H-thymidine at 0.02 μCi per well and incubated at 37° C. in a humidified atmosphere plus 5% CO2 for 6 h.\n5. Plate Harvesting. • Aspirated all media and washed cells with 1×PBS. Trypsinized cells for 30 min at 37° C. in a humidified atmosphere plus 5% CO2. Harvested cells onto a 96 well filter plate (Millipore) using a Tomtec Cell Harvestor, according to manufacturers instructions.\n6. Scintillation Counting. • Added 25 μl of scintillation fluid per well. Counted the plate using a scintillation counter."}, "[2]": {"target": "T1, CYP27A1 (Homo sapiens, UniProt Q02318)", "T1 sequence (Q02318 34-531)": "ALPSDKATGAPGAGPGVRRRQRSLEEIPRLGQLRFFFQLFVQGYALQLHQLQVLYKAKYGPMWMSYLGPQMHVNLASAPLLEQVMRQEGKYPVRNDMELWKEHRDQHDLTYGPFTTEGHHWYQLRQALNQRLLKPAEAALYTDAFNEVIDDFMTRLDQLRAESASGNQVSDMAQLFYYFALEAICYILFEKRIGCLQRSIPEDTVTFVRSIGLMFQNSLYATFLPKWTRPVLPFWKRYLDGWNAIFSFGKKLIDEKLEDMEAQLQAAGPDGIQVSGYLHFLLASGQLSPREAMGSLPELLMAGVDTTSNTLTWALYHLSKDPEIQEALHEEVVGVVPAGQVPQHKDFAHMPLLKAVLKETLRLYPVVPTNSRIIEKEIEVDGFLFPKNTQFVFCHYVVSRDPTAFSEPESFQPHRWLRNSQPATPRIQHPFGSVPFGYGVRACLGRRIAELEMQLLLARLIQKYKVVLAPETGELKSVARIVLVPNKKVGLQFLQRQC", "test": "CYP27A1 enzyme assay", "type": "biochemical"}}, "data": [{"smiles": "C=C1/C(=C\\C=C2/CCC[C@]3(C)[C@@H]([C@H](C)CCS(=N)(=O)c4ccccc4)CC[C@@H]23)C[C@@H](O)C[C@@H]1O", "note": "(single isomer, unassigned) [I(a)]", "values": [{"measurement": "inhibition of proliferation of SCC-25 cells", "setting": "[1]", "value": "act to inhibit the proliferation"}]}, {"smiles": "C=C1/C(=C\\C=C2/CCC[C@]3(C)[C@@H]([C@H](C)CCS(=O)(=NC)c4ccccc4)CC[C@@H]23)C[C@@H](O)C[C@@H]1O", "note": "(single isomer, unassigned) [I(e)]", "values": [{"measurement": "IC50", "setting": "[2]", "value": "> 1000", "unit": "nM"}, {"measurement": "inhibition of proliferation of SCC-25 cells", "setting": "[1]", "value": "act to inhibit the proliferation"}]}, {"smiles": "C=C1/C(=C\\C=C2/CCC[C@]3(C)[C@@H]([C@H](C)CCS(=O)(=NC)c4ccccc4)CC[C@@H]23)C[C@@H](O)C[C@@H]1O", "note": "(single isomer, unassigned) [I(g)]", "values": [{"measurement": "IC50", "setting": "[2]", "value": "> 1000", "unit": "nM"}, {"measurement": "inhibition of proliferation of SCC-25 cells", "setting": "[1]", "value": "act to inhibit the proliferation"}]}, {"smiles": "C[C@H](CCS(=N)(=O)c1ccccc1)[C@H]1CC[C@H]2/C(=C/C=C3C[C@@H](O)C[C@H](O)C3)CCC[C@]12C", "note": "(single isomer, unassigned) [I(i), 24-Phenyl Sulfoximine 19-Nor-Vitamin-D3]", "values": [{"measurement": "inhibition of proliferation of SCC-25 cells", "setting": "[1]", "value": "act to inhibit the proliferation"}]}]}
